# Measured values taken from patent US9211310B2, “Use of a Chinese medicine composition in preparing medicaments for treating secondary prevention of myocardial infarction” (TASLY PHARMACEUTICAL GROUP CO., LTD, priority 2010, dated 2015).
# System: patients after acute myocardial infarction
# Assay: TCM symptom score, total and single (chest pain, chest tightness, short breath, fatigue, palpitation, spontaneous perspiration, pale complexion), same clinical trial
# Assay type: in vivo, human
# Parameters: total score of TCM symptom, Mean / total score of TCM symptom, Min / total score of TCM symptom, Max / total score of TCM symptom, Md / change of total score of TCM symptom, Mean / change of total score of TCM symptom, Max / change of total score of TCM symptom, Md: scale not given here
# Details: FAS
# From the text: 3508 patients who were in accordance with the diagnostic standards of AMI for 28 days to 2 years and differentiated as Qi deficiency and blood stagnation syndrome by TCM were studied. 0.5 g Chinese medicine composition prepared by the method of EXAMPLE 1 (Coded as QSYQ) was administrated half an hour after meal, 3 times per day.
# They included the overall survival time, angina pectoris score, TCM symptom score and life quality score, where angina pectoris score, TCM symptom score and life quality score were evaluated at randomization, in 1st, 3rd, 6th, 9th, 12th month after treatment and 18th month after follow-up.
# The analysis method referred to the angina pectoris score.
# [1] = 1 month after treatment-baseline
# [2] = 3 month after treatment-baseline
smiles,measurement,setting,value
"CC(=O)Oc1ccccc1C(=O)O [Control group, aspirine]","total score of TCM symptom, Max",1 month after treatment,34.00
same,"total score of TCM symptom, Md",1 month after treatment,11.00
same,"total score of TCM symptom, Mean",1 month after treatment,11.84
same,"total score of TCM symptom, Min",1 month after treatment,0.00
same,"change of fatigue 0, % of patients",[1],(72.40%)
same,"change of fatigue 0, number of patients",[1],1238
same,"change of fatigue 1, % of patients",[1],(0.06%)
same,"change of fatigue 1, number of patients",[1],1
same,"change of fatigue 2, % of patients",[1],(17.72%)
same,"change of fatigue 2, number of patients",[1],303
same,"change of fatigue 4, % of patients",[1],(2.63%)
same,"change of fatigue 4, number of patients",[1],45
same,"change of fatigue 6, % of patients",[1],(0.76%)
same,"change of fatigue 6, number of patients",[1],13
same,"change of fatigue −2, % of patients",[1],(5.73%)
same,"change of fatigue −2, number of patients",[1],98
same,"change of fatigue −4, % of patients",[1],(0.64%)
same,"change of fatigue −4, number of patients",[1],11
same,"change of fatigue −6, % of patients",[1],(0.06%)
same,"change of fatigue −6, number of patients",[1],1
same,"change of pale complexion 0, number of patients",[1],1477
same,"change of pale complexion 0, percent of patients",[1],(86.48%)
same,"change of pale complexion 1, number of patients",[1],166
same,"change of pale complexion 1, percent of patients",[1],(9.72%)
same,"change of pale complexion −1, number of patients",[1],65
same,"change of pale complexion −1, percent of patients",[1],(3.81%)
same,"change of palpitation 0, number of patients",[1],1242
same,"change of palpitation 0, percent of patients",[1],(72.63%)
same,"change of palpitation 1, number of patients",[1],334
same,"change of palpitation 1, percent of patients",[1],(19.53%)
same,"change of palpitation 2, number of patients",[1],25
same,"change of palpitation 2, percent of patients",[1],(1.46%)
same,"change of palpitation 3, number of patients",[1],5
same,"change of palpitation 3, percent of patients",[1],(0.29%)
same,"change of palpitation −1, number of patients",[1],103
same,"change of palpitation −1, percent of patients",[1],(6.02%)
same,"change of palpitation −2, number of patients",[1],1
same,"change of palpitation −2, percent of patients",[1],(0.06%)
same,"change of palpitation −3, number of patients",[1],0
same,"change of palpitation −3, percent of patients",[1],(0.00%)
same,"change of short breath 0, % of patients",[1],(77.37%)
same,"change of short breath 0, number of patients",[1],1323
same,"change of short breath 2, % of patients",[1],(14.74%)
same,"change of short breath 2, number of patients",[1],252
same,"change of short breath 4, % of patients",[1],(1.75%)
same,"change of short breath 4, number of patients",[1],30
same,"change of short breath 6, % of patients",[1],(0.41%)
same,"change of short breath 6, number of patients",[1],7
same,"change of short breath −2, % of patients",[1],(5.26%)
same,"change of short breath −2, number of patients",[1],90
same,"change of short breath −4, % of patients",[1],(0.47%)
same,"change of short breath −4, number of patients",[1],8
same,"change of short breath −6, % of patients",[1],(0.00%)
same,"change of short breath −6, number of patients",[1],0
same,"change of spontaneous perspiration 0, number of patients",[1],1249
same,"change of spontaneous perspiration 0, percent of patients",[1],(73.08%)
same,"change of spontaneous perspiration 1, number of patients",[1],279
same,"change of spontaneous perspiration 1, percent of patients",[1],(16.33%)
same,"change of spontaneous perspiration 2, number of patients",[1],51
same,"change of spontaneous perspiration 2, percent of patients",[1],(2.98%)
same,"change of spontaneous perspiration 3, number of patients",[1],16
same,"change of spontaneous perspiration 3, percent of patients",[1],(0.94%)
same,"change of spontaneous perspiration −1, number of patients",[1],94
same,"change of spontaneous perspiration −1, percent of patients",[1],(5.50%)
same,"change of spontaneous perspiration −2, number of patients",[1],17
same,"change of spontaneous perspiration −2, percent of patients",[1],(0.99%)
same,"change of spontaneous perspiration −3, number of patients",[1],3
same,"change of spontaneous perspiration −3, percent of patients",[1],(0.18%)
same,"change of total score of TCM symptom, Max",[1],24.00
same,"change of total score of TCM symptom, Md",[1],0.00
same,"change of total score of TCM symptom, Mean",[1],−1.96
same,"change of total score of TCM symptom, Min",[1],−33.00
same,"change of total score of TCM symptom, Max",[2],19.00
same,"change of total score of TCM symptom, Md",[2],−2.00
same,"change of total score of TCM symptom, Mean",[2],−2.91
same,"change of total score of TCM symptom, Min",[2],−33.00
same,"distribution of total score of TCM symptom: Medium, number of patients",3 months after treatment,546
same,"distribution of total score of TCM symptom: Medium, percentage of patients",3 months after treatment,(33.58%)
same,"distribution of total score of TCM symptom: Mild, number of patients",3 months after treatment,1066
same,"distribution of total score of TCM symptom: Mild, percentage of patients",3 months after treatment,(65.56%)
same,"distribution of total score of TCM symptom: Severe, number of patients",3 months after treatment,14
same,"distribution of total score of TCM symptom: Severe, percentage of patients",3 months after treatment,(0.86%)
same,"fatigue score 0, % of patients",3 months after treatment,(27.96%)
same,"fatigue score 0, number of patients",3 months after treatment,480
same,"fatigue score 2, % of patients",3 months after treatment,(59.76%)
same,"fatigue score 2, number of patients",3 months after treatment,1026
same,"fatigue score 4, % of patients",3 months after treatment,(11.47%)
same,"fatigue score 4, number of patients",3 months after treatment,197
same,"fatigue score 6, % of patients",3 months after treatment,(0.82%)
same,"fatigue score 6, number of patients",3 months after treatment,14
same,"pale complexion score 0, number of patients",3 months after treatment,809
same,"pale complexion score 0, percent of patients",3 months after treatment,(47.12%)
same,"pale complexion score 1, number of patients",3 months after treatment,677
same,"pale complexion score 1, percent of patients",3 months after treatment,(39.43%)
same,"pale complexion score 2, number of patients",3 months after treatment,210
same,"pale complexion score 2, percent of patients",3 months after treatment,(12.23%)
same,"pale complexion score 3, number of patients",3 months after treatment,21
same,"pale complexion score 3, percent of patients",3 months after treatment,(1.22%)
same,"palpitation score 0, number of patients",3 months after treatment,480
same,"palpitation score 0, percent of patients",3 months after treatment,(27.96%)
same,"palpitation score 2, number of patients",3 months after treatment,894
same,"palpitation score 2, percent of patients",3 months after treatment,(52.07%)
same,"palpitation score 4, number of patients",3 months after treatment,310
same,"palpitation score 4, percent of patients",3 months after treatment,(18.05%)
same,"palpitation score 6, number of patients",3 months after treatment,33
same,"palpitation score 6, percent of patients",3 months after treatment,(1.92%)
same,"short breath score 0, % of patients",3 months after treatment,(21.78%)
same,"short breath score 0, number of patients",3 months after treatment,374
same,"short breath score 3, % of patients",3 months after treatment,(58.94%)
same,"short breath score 3, number of patients",3 months after treatment,1012
same,"short breath score 6, % of patients",3 months after treatment,(18.52%)
same,"short breath score 6, number of patients",3 months after treatment,318
same,"short breath score 9, % of patients",3 months after treatment,(0.76%)
same,"short breath score 9, number of patients",3 months after treatment,13
same,"spontaneous perspiration score 0, number of patients",3 months after treatment,667
same,"spontaneous perspiration score 0, percent of patients",3 months after treatment,(38.85%)
same,"spontaneous perspiration score 1, number of patients",3 months after treatment,846
same,"spontaneous perspiration score 1, percent of patients",3 months after treatment,(49.27%)
same,"spontaneous perspiration score 2, number of patients",3 months after treatment,190
same,"spontaneous perspiration score 2, percent of patients",3 months after treatment,(11.07%)
same,"spontaneous perspiration score 3, number of patients",3 months after treatment,14
same,"spontaneous perspiration score 3, percent of patients",3 months after treatment,(0.82%)
same,"total score of TCM symptom, Max",3 months after treatment,33.00
